Key:
[1] = Simulated wound matrix disruption on 96-peg lid, test solutions (Example 1); conditions: for % Difference in Efficacy (chelators) / % Difference in Efficacy (surfactants): 1% w/w solution, 37° C., 1 hour, absorbance at 595 nm, with respect to 1% w/w benzethonium chloride aqueous solution; for efficacy relative to benzalkonium chloride, cocoamidopropyl betaine and Poloxamer 188 / efficacy in disrupting the simulated test wound matrix relative to SLS: 1% w/w; for efficacy in disrupting the simulated test wound matrix relative to SLS: compared with SLS
Method: The following examples are prepared and evaluated using a simulated wound matrix composition. A wound matrix is prepared to contain:
The pegs are dipped into the simulated wound matrix and immediately transferred to a calcium chloride bath to achieve cross-linking. Solutions of test materials are prepared at 1% w/w in a 96 well microtiter plate. Following crosslinking, the pegs are inserted into the wells and incubated at 37° C. for 1 hour. Efficacy is characterised by the change in colour of the test solutions resulting from disruption of the stained material and is quantified by reading the absorbance of each solution at 595 nm. Results are presented with respect to a 1% w/w benzethonium chloride aqueous solution.

[2] = AKZO Nobel published values using modified Davies HLB group numbers; cited from earlier work

| Molecule | % Difference in Efficacy (chelators) [1] | % Difference in Efficacy (surfactants) [1] | HLB Value [2] | also measured |
| --- | --- | --- | --- | --- |
| O=C(O)CC(O)(CC(=O)O)C(=O)O [Citric Acid] | +50% |  |  |  |
| O=C([O-])C(=O)[O-].[K+].[K+] [Potassium Oxalate] | +1350% |  |  |  |
| O=P([O-])(O)O.[Na+] [Sodium Di-hydrogen Phosphate] | −70% |  |  |  |
| CCCCCCCCCCCCOS(=O)(=O)[O-].[Na+] [Sodium Dodecyl Sulphate, reference compound] |  | −99% | 33.0 |  |
| CCCCCCCC/C=C\CCCCCCCC(=O)[O-].[Na+] [Sodium Oleate] |  | +996% | 10.55 | efficacy relative to benzalkonium chloride, cocoamidopropyl betaine and Poloxamer 188 [1]: an order of magnitude greater; efficacy in disrupting the simulated test wound matrix relative to SLS [1]: an order of magnitude greater |
| O=C([O-])CC(O)(CC(=O)[O-])C(=O)[O-].[Na+].[Na+].[Na+] [Tris-odium Citrate] | +1750% |  |  |  |
| Benzalkonium Chloride [reference compound] |  | +60% |  |  |
| Cocoamidopropyl betaine |  | +120% |  |  |
| Di-sodium Lauryl Sulfosuccinate |  | +844% |  | efficacy relative to benzalkonium chloride, cocoamidopropyl betaine and Poloxamer 188 [1]: an order of magnitude greater; efficacy in disrupting the simulated test wound matrix relative to SLS [1]: an order of magnitude greater |
| Poloxamer 188 [reference compound] |  | −90% | 3.4 |  |
| Sodium Laureth-2 Sulphate |  | −30% | 15.3 |  |

— patent US12508342B2, “Debridement composition” (priority 2020, dated 2025)
